# In ChEMBL document CHEMBL5518232, “Discovery of New Tricyclic Oxime Sampangine Derivatives as Potent Antifungal Agents for the Treatment of Cryptococcosis and Candidiasis” (J Med Chem, 2024):
# Activity calls are given as the source filed them. No cut-off for these calls is given here.
# Tests used:
# Candida albicans [1] = test: Antifungal activity against Candida albicans SC5314 assessed as reduction in fungal growth incubated for 48 hrs by liquid based microdilution method; type: functional
# Candida albicans [2] = test: Antifungal activity against Candida albicans 0304103 assessed as reduction in fungal growth incubated for 48 hrs by liquid based microdilution method; type: functional
# Candida tropicalis = test: Antifungal activity against Candida tropicalis 10186 assessed as reduction in fungal growth incubated for 48 hrs by liquid based microdilution method; type: functional
# Nakaseomyces glabratus = test: Antifungal activity against Candida glabrata 9073 assessed as reduction in fungal growth incubated for 48 hrs by liquid based microdilution method; type: functional
# Cryptococcus neoformans [3] = test: Antifungal activity against Cryptococcus neoformans H99 assessed as reduction in fungal growth incubated for 72 hrs by liquid based microdilution method; type: functional
# Cryptococcus neoformans [4] = test: Antifungal activity against Cryptococcus neoformans ATCC 34877 assessed as reduction in fungal growth incubated for 72 hrs by liquid based microdilution method; type: functional
# [5] = Antifungal activity against Cryptococcus gattii VGI ATCC 14116 assessed as reduction in fungal growth incubated for 72 hrs by liquid based microdilution method; type: functional
# Candida albicans [6] = test: Synergistic antifungal activity against Candida albicans 0304103 assessed as inhibition of fungal growth incubated for 48 hrs in presence of (Z)-8-(hydroxyimino)-3-methylthieno[3',2':4,5]benzo[1,2-d]isoxazol-4(8H)-one by checkerboard microdilution assay; type: functional
# Candida albicans [7] = test: Synergistic antifungal activity against Candida albicans 0304103 assessed as inhibition of fungal growth incubated for 48 hrs in presence of ((Z)-8-(methoxyimino)-3-methylthieno[3',2':4,5]benzo[1,2-d]isoxazol-4(8H)-one by checkerboard microdilution assay; type: functional
# Candida albicans [8] = test: Synergistic antifungal activity against Candida albicans 0304103 assessed as inhibition of fungal growth incubated for 48 hrs in presence of (Z)-8-(ethoxyimino)-3-methylthieno[3',2':4,5]benzo[1,2-d]isoxazol-4(8H)-one by checkerboard microdilution assay; type: functional
# Candida albicans [9] = test: Synergistic antifungal activity against Candida albicans 0304103 assessed as inhibition of fungal growth incubated for 48 hrs in presence of (Z)-8-(isopropoxyimino)-3-methylthieno[3',2':4,5]benzo[1,2-d]isoxazol-4(8H)-one by checkerboard microdilution assay; type: functional
# Candida albicans [10] = test: Synergistic antifungal activity against Candida albicans 0304103 assessed as inhibition of fungal growth incubated for 48 hrs in presence of (Z)-3-ethyl-8-(methoxyimino)thieno[3',2':4,5]benzo[1,2-d]isoxazol-4(8H)-one by checkerboard microdilution assay; type: functional
# Candida albicans [11] = test: Synergistic antifungal activity against Candida albicans 0304103 assessed as inhibition of fungal growth incubated for 48 hrs in presence of (Z)-8-(methoxyimino)-3-propylthieno[3',2':4,5]benzo[1,2-d]isoxazol-4(8H)-one by checkerboard microdilution assay; type: functional
# Candida albicans [12] = test: Synergistic antifungal activity against Candida albicans 0304103 assessed as inhibition of fungal growth incubated for 48 hrs in presence of (4Z,8Z)-benzo[1,2-b:4,5-b']dithiophene-4,8-dione O,O-dimethyl dioxime by checkerboard microdilution assay; type: functional
# Candida albicans [13] = test: Synergistic antifungal activity against Candida albicans 0304103 assessed as inhibition of fungal growth incubated for 48 hrs in presence of (Z)-8-(methoxyimino)benzo[1,2-b:4,5-b']dithiophen-4(8H)-one by checkerboard microdilution assay; type: functional
# Candida albicans [14] = test: Synergistic antifungal activity against Candida albicans 0304103 assessed as inhibition of fungal growth incubated for 48 hrs in presence of (Z)-9-(hydroxyimino)-3-methylnaphtho[2,3-d]isoxazol-4(9H)-one by checkerboard microdilution assay; type: functional
# Candida albicans [15] = test: Synergistic antifungal activity against Candida albicans 0304103 assessed as inhibition of fungal growth incubated for 48 hrs in presence of (Z)-9-(methoxyimino)-3-methylnaphtho[2,3-d]isoxazol-4(9H)-one by checkerboard microdilution assay; type: functional
# Candida albicans [16] = test: Synergistic antifungal activity against Candida albicans 0304103 assessed as inhibition of fungal growth incubated for 48 hrs in presence of (Z)-9-(ethoxyimino)-3-methylnaphtho[2,3-d]isoxazol-4(9H)-one by checkerboard microdilution assay; type: functional
# Candida albicans [17] = test: Synergistic antifungal activity against Candida albicans 0304103 assessed as inhibition of fungal growth incubated for 48 hrs in presence of (Z)-8-(methoxyimino)-3-methylbenzofuro[6,5-d]isoxazol-4(8H)-one by checkerboard microdilution assay; type: functional
# Cryptococcus neoformans [18] = test: Inhibition of biofilm formation in Cryptococcus neoformans H99 at 64 ug/ml incubated for 24 hrs by microplate based analysis relative to control; type: functional
# Candida albicans [19] = test: Inhibition of biofilm formation in Candida albicans 0304103 at 2 ug/ml incubated for 32 hrs by microplate based analysis; type: functional, organism-based; conditions: dose 2.0 µg/ml
# Candida albicans [20] = test: Inhibition of biofilm formation in Candida albicans 0304103 at 8 ug/ml incubated for 24 hrs in presence of (Z)-8-(methoxyimino)-3-methylthieno[3',2':4,5]benzo[1,2-d]isoxazol-4(8H)-one by microplate based analysis relative to control; type: functional
# Candida albicans [21] = test: Antifungal activity against Candida albicans 0304103 assessed as downregulation of TEC1 expression at 8 ug/ml incubated for 24 hrs in presence of (Z)-8-(methoxyimino)-3-methylthieno[3',2':4,5]benzo[1,2-d]isoxazol-4(8H)-one by RT-PCR analysis; type: functional, organism-based; conditions: dose 8.0 µg/ml
# Candida albicans [22] = test: Antifungal activity against Candida albicans 0304103 assessed as downregulation of RLM1 expression at 8 ug/ml incubated for 24 hrs in presence of (Z)-8-(methoxyimino)-3-methylthieno[3',2':4,5]benzo[1,2-d]isoxazol-4(8H)-one by RT-PCR analysis; type: functional, organism-based; conditions: dose 8.0 µg/ml
# Candida albicans [23] = test: Antifungal activity against Candida albicans 0304103 assessed as downregulation of APH5 expression at 8 ug/ml incubated for 24 hrs in presence of (Z)-8-(methoxyimino)-3-methylthieno[3',2':4,5]benzo[1,2-d]isoxazol-4(8H)-one by RT-PCR analysis; type: functional, organism-based; conditions: dose 8.0 µg/ml
# Candida albicans [24] = test: Antifungal activity against Candida albicans 0304103 assessed as downregulation of GCA1 expression at 8 ug/ml incubated for 24 hrs in presence of (Z)-8-(methoxyimino)-3-methylthieno[3',2':4,5]benzo[1,2-d]isoxazol-4(8H)-one by RT-PCR analysis; type: functional, organism-based; conditions: dose 8.0 µg/ml
# Candida albicans [25] = test: Antifungal activity against Candida albicans 0304103 assessed as downregulation of GCA2 expression at 8 ug/ml incubated for 24 hrs in presence of (Z)-8-(methoxyimino)-3-methylthieno[3',2':4,5]benzo[1,2-d]isoxazol-4(8H)-one by RT-PCR analysis; type: functional, organism-based; conditions: dose 8.0 µg/ml
# Candida albicans [26] = test: Antifungal activity against Candida albicans 0304103 assessed as downregulation of CDR1 expression at 8 ug/ml incubated for 24 hrs in presence of (Z)-8-(methoxyimino)-3-methylthieno[3',2':4,5]benzo[1,2-d]isoxazol-4(8H)-one by RT-PCR analysis; type: functional, organism-based; conditions: dose 8.0 µg/ml
# Candida albicans [27] = test: Antifungal activity against Candida albicans 0304103 assessed as downregulation of ERG11 expression at 8 ug/ml incubated for 24 hrs in presence of (Z)-8-(methoxyimino)-3-methylthieno[3',2':4,5]benzo[1,2-d]isoxazol-4(8H)-one by RT-PCR analysis; type: functional, organism-based; conditions: dose 8.0 µg/ml
# Candida albicans [28] = test: Antifungal activity against Candida albicans 0304103 assessed as reversal of ERG11 expression by measuring fold change at 8 ug/ml incubated for 24 hrs in presence of (Z)-8-(methoxyimino)-3-methylthieno[3',2':4,5]benzo[1,2-d]isoxazol-4(8H)-one by RT-PCR analysis (reference value: 8.8); type: functional; conditions: dose 8 µg/ml
# Candida albicans [29] = test: In vivo antifungal activity against Candida albicans 0304103 infected in […] ICR mouse model assessed as reduction in fungal burden in kidney at 5 mg/kg, ip measured for 5 days in presence of (Z)-8-(methoxyimino)-3-methylthieno[3',2':4,5]benzo[1,2-d]isoxazol-4(8H)-one (reference value: 7.37 log10CFU/g); type: functional; conditions: time 5 day
# Candida albicans [30] = test: In vivo antifungal activity against Candida albicans SC5314 infected in […] ICR mouse model assessed as reduction in fungal burden in kidney at 0.5 mg/kg, ip measured for 5 days in presence of (Z)-8-(methoxyimino)-3-methylthieno[3',2':4,5]benzo[1,2-d]isoxazol-4(8H)-one; type: functional; conditions: time 5 day
compound,measurement,setting,value
OC(Cn1cncn1)(Cn1cncn1)c1ccc(F)cc1F [FLUCONAZOLE],MIC80,Candida albicans [1],0.5 µg/mL
same,MIC80,Candida albicans [2],> 64 µg/mL
same,MIC80,Candida tropicalis,> 64 µg/mL
same,MIC80,Nakaseomyces glabratus,32 µg/mL
same,MIC80,Cryptococcus neoformans [3],2 µg/mL
same,MIC80,Cryptococcus neoformans [4],1 µg/mL
same,MIC80,[5],1 µg/mL
same,MIC80,Candida albicans [6],4 µg/mL
same,MIC80,Candida albicans [7],1 µg/mL
same,MIC80,Candida albicans [8],1 µg/mL
same,MIC80,Candida albicans [9],2 µg/mL
same,MIC80,Candida albicans [10],1 µg/mL
same,MIC80,Candida albicans [11],8 µg/mL
same,MIC80,Candida albicans [12],> 64 µg/mL
same,MIC80,Candida albicans [13],1 µg/mL
same,MIC80,Candida albicans [14],2 µg/mL
same,MIC80,Candida albicans [15],1 µg/mL
same,MIC80,Candida albicans [16],0.5 µg/mL
same,MIC80,Candida albicans [17],2 µg/mL
same,inhibition at 64 µg/mL,Cryptococcus neoformans [18],80%
same,inhibition,Candida albicans [19],inactive
same,inhibition at 8 µg/mL,Candida albicans [20],50%
same,Activity,Candida albicans [21],Active
same,Activity,Candida albicans [22],Active
same,Activity,Candida albicans [23],Active
same,Activity,Candida albicans [24],Active
same,Activity,Candida albicans [25],Active
same,Activity,Candida albicans [26],Active
same,Activity,Candida albicans [27],Active
same,fold change (FC),Candida albicans [28],0.8
same,Activity,Candida albicans [29],5.31 log10CFU/g
same,Activity,Candida albicans [30],5.02 log10CFU/g
